Columns and labels:
[1] = tested on: patient-derived Meso84 cell line (sarcomatoid MPM); experiment: MTT cytotoxicity assay, 72 h, Meso84; assay type: cell-based, human; settings: exposure time 72 h
Excerpt: (§1) Human malignant mesothelioma cancer cell lines JU77 and LO68 were obtained from Cell Bank Australia (Children's Medical Research Institute, Westmead, Australia). Mouse malignant mesothelioma cancer cell line AB12, human nonmalignant mesothelioma cancer cell line Met5A (mesothelial cells), mouse macrophage cell line J774 and human monocytic cell line THP-1 were obtained from American Type Culture Collection (ATCC) (Rockville, MD, USA). Human malignant mesothelioma cell lines VMC23 (epithelial), Meso82 (sarcomatous), Meso92 (biphasic), were kindly provided by Prof. Walter Berger (Medical University of Vienna). All cells except for J774 were cultured in RPMI and J774 cells were cultured in DMEM. Both types of media were supplemented with 10% FBS and 1% penicillin-streptomycin (10,000 U/mL). Cells were grown in tissue culture flasks (75 cm2 and 25 cm2, SPL Life Sciences Co., Ltd., Korea). All cell lines were grown at 37 °C in a humidified atmosphere of 95% air and 5% CO 2 and passaged when they reached 80–90% confluency. All Au stock solutions were prepared in 1% DMSO in the respected medium, ensuring that cell viability was not inhibited.
(§2) The cytotoxicity of compounds was determined using an MTT colorimetric test. The cells were harvested from culture flasks by trypsinization and seeded into Cellstar 96 -well microculture plates (Greiner Bio -One) at the seeding density of 6000 cells per well (6 × 10^4 cells/mL). After
(§3) the cells were allowed to resume exponential growth for 16 h, they were exposed to drugs at
(§4) different concentrations in media for 72 h. The drugs were diluted in a complete medium at the desired concentration added to each well (100 μL) and serially diluted in other wells. After exposure for 72 h, the media was replaced with MTT in media (5 mg/mL, 100 μL/well) and
(§5) incubated for an additional 50 min. Subsequently, the medium was aspirated, and the purple formazan crystals formed in viable cells were dissolved in DMSO (100 μL/well). Optical densities were measured at 570 nm using a BioTek Synergy H1 microplate and MultiskanTM SkyHigh plate readers. The quantity of viable cells was expressed in terms of treated/control (T/C) values in comparison to untreated control cells, and 50% inhibitory concentrations (IC 50) were calculated from concentration-effect curves by interpolation. An evaluation was based on means from at least three independent experiments, each comprising three replicat es per
(§6) DMSO had not impact on the cell viability at the concentrations used.

[2] = tested on: AB12 cells in BALB/c mice; experiment: In vivo vaccination model; parameters: species or system mouse; settings: within the first 30 days after vaccination, n = 8
Excerpt: Initially, AB12 cells underwent pretreatment with varying concentrations of Au(III) complexes, and the induced cell death and release of desired ICD biomarkers were monitored over time. Upon reaching a cell death rate of 65%–75%, BALB/c mice (n = 8) were subcutaneously injected in the left flank with a vaccine containing 3 × 10^5 of live/dying/dead cells, while the vehicle group received injections of PBS. Seven days postvaccine administration, the immunized mice were rechallenged by inoculating the same number of live AB12 cells (without any prior treatment) into the right flanks (Figure 5A). The progression of tumor growth on the right flanks was monitored using a caliper.
AB12 cells were seeded into Cellstar 24-well plates (Greiner Bio-One) at a density of 1.8 × 104
cells/ml (1 ml per well) and allowed to grow exponentially for 16 hours. Subsequently, the
medium was replaced with 1 ml of fresh medium containing compounds of interest at
predetermined concentrations (with a minimum of 4 wells per treatment condition). These
concentrations were selected to induce 65-75% cell death.
Subsequently, the culture
medium was aspirated, and the cells were washed twice with 1 mL of PBS. The cell
concentration was adjusted to 3 × 10^5 cells (including dead/dying/live cells) per 100 μL of PBS,
and the ratio of dead/live cells was assessed using the Invitrogen Countess 3 cell counter. In
the subsequent experiment, BALB/c mice (8 mice per group) were subcutaneously injected
with 0.1 mL of AB12 cells (3 × 10^5 cells/mL, including dead/dying/live cells) or the
corresponding vehicle (PBS) on the left flank. Tumor growth was monitored daily.
After 7 days, the mice were subcutaneously injected with
0.1 mL of AB12 cells (3 × 10^5 cells/mL, live cells) on the right flank. Regular measurements
of body weights and tumor sizes were taken. Mice that developed palpable tumors were
euthanized for further analysis.

[3] = tested on: human malignant mesothelioma cell line JU77; experiment: MTT cytotoxicity assay, 72 h, JU77; assay type: cell-based; settings: exposure time 72 h
Excerpt: as §1, §2, §3, §4, §5, §6

[4] = tested on: extracellular HMGB1 from AB12 cells; experiment: Western blot of extracellular HMGB1 in supernatants; assay type: cell-based, mouse; settings: AB12, 5 × IC50, 240 min
Procedure: cells were lysed with 200 µL of RIPA buffer, scraped, collected into 2 mL microtubes, sonicated for 45 sec on ice and centrifuged at 12000 × g for 20 min at 4 °C.
Protein concentration was measured by BCA Protein Assay Kit (PierceTM). 30 µg protein were reconstituted in loading buffer (5× Laemmli Buffer with 5% DTT) and heated at 95 °C for 10 min. Subsequently, the protein mixtures were resolved on 10% SDS-PAGE gels (BeyoGelTM)by electrophoresis ( 80 V for 20 min followed by 1 00 V for 60 min) and transferred onto a nitrocellulose membrane (250 mA for 2 h).
For Western Blot detection of extracellular HMGB1 protein, AB12 cells were seeded into Cellstar 6-well plates (Greiner Bio -One) at a density of 1 × 10^6 cells/well (2 ml per well). […]
After incubation with HRP-conjugated secondary antibodies (Catalogue Number: 7074P2, Cell Signaling Technology) in 2% BSA (w/v) in wash buffer at RT for 2 h, the membranes were washed with wash buffer 3 times for 5-10 min. Immune complexes were detected with SuperSignal™ West Atto Ultimate Sensitivity Substrate (A38554, Thermo Scientific) and analyzed using enhanced chemiluminescence imaging (Biorad). β-Actin was used as a loading control. […]
GA5010)). Luminescence was measured using Molecular Devices SpectraMax iD5 plate reader. […] The luminescence data was recorded for a total duration of 6 h following the treatment. […]

[5] = tested on: human malignant mesothelioma cell line LO68; experiment: MTT cytotoxicity assay, 72 h, LO68; assay type: cell-based; settings: exposure time 72 h
[6] = tested on: murine malignant mesothelioma cell line AB12; experiment: MTT cytotoxicity assay, 72 h, AB12; assay type: cell-based, mouse; settings: exposure time 72 h
Excerpt: as §1, §2, §3, §4, §5, §6

[7] = tested on: patient-derived Meso92 cell line (biphasic MPM); experiment: MTT cytotoxicity assay, 72 h, Meso92; assay type: cell-based, human; settings: exposure time 72 h
Excerpt: Cell lines and culture conditions
(§7) Mouse malignant mesothelioma cancer cell line AB12, human nonmalignant mesothelioma cancer cell line Met5A (mesothelial cells), mouse macrophage cell line J774 and human monocytic cell line THP-1 were obtained from American Type Culture Collection (ATCC) (Rockville, MD, USA). Human malignant mesothelioma cell lines VMC23 (epithelial), Meso82 (sarcomatous), Meso92 (biphasic), were kindly provided by Prof. Walter Berger (Medical University of Vienna). All cells except for J774 were cultured in RPMI and J774 cells were cultured in DMEM. Both types of media were supplemented with 10% FBS and 1% penicillin-streptomycin (10,000 U/mL). Cells were grown in tissue culture flasks (75 cm2 and 25 cm2, SPL Life Sciences Co., Ltd., Korea). All cell lines were grown at 37 °C in a humidified atmosphere of 95% air and 5% CO 2 and passaged when they reached 80–90% confluency. All Au stock solutions were prepared in 1% DMSO in the respected medium, ensuring that cell viability was not inhibited. The Au concentration in the stock solutions was confirmed through inductively coupled plasma optical emission spectrometry. The stock solution of pemetrexed (10 mM) was prepared in Milli -Q water.
Inhibition of c ell viability assay
as §2, §3, §4, §5

[8] = tested on: patient-derived VMC23 cell line (epithelioid MPM); experiment: MTT cytotoxicity assay, 72 h, VMC23; assay type: cell-based, human; settings: exposure time 72 h
Excerpt: as §1, §2, §3, §4, §5, §6

[9] = tested on: human nonmalignant mesothelioma cell line Met5A; experiment: MTT cytotoxicity assay, 72 h, Met5A; assay type: cell-based; settings: exposure time 72 h
Excerpt: Cell lines and culture conditions
as §7
Inhibition of c ell viability assay
as §2, §3, §4, §5

HMGB1 in AB12 cells = experiment: HMGB1 detection, confocal microscopy; assay type: cell-based, mouse; settings: AB12, 5 × IC50
Procedure: mL per dish). […] Afterwards, the […]
concentrations for 2 h at 37°C. […]
were stored in 1 mL of PBS. The confocal images were acquired by Laser Confocal Scanning […]
dishes were washed twice with 1 mL of PBS. The dishes were then incubated with HMGB1 […]
washed with 1 mL of PBS. Samples were stored in 1 mL of PBS. The confocal images were acquired by Laser Confocal Scanning Microscope (Leica SPE).
AB12 cells were seeded into the confocal dish (Biosharp) at a density of 3 × 10^5 cells/well (1 […]
mL per well). […] The cell culture […]
medium was aspirated and washed with PBS (2 × 1 ml). In a dimly lit setting, a solution of H2DCFDA (2',7'-dichlorodihydrofluorescein diacetate) in 1 × HBSS (10 μM, 1 mL) was added to each well and allowed to incubate for 15 min at 37 °C. Following this, the H 2DCFDA solution was aspirated and the wells were rinsed with HBSS (2 × 1 ml). Subsequently, the cells were treated with fresh colo urless cell culture medium containing compounds of interest at […]
Subsequently, the cells were treated with a culture medium containing 1 μM of Mitotracker TM Deep Red, 1 μM ER-Tracker™ Blue-White DPX and 1 μg/mL of Hoechst 33342 for 30 minutes. […] Images were captured using Laser Confocal Scanning Microscope (Leica SPE) and analyzed using the Microscope Software Platform LAS X Life Science. […]

[10] = tested on: hepatocellular carcinoma tumors; parameters: method as in PMID 38261008, PMID 36827091; settings: cited from earlier work
colon cancer cells = tested on: colon cancer cells; parameters: method as in PMID 33237764; settings: immunocompetent mice; cited from earlier work

CCCC[N+](CCCC)=C1[S][Au-]2([S]1)[c]1ccccc1Cc1cccc[n+]12.F[P-](F)(F)(F)(F)F (stereo not drawn) [2C]
IC50 [1]: 3900 ± 700 nM | mice that developed tumors after vaccination [2]: ≈ 50% | IC50 [3]: 2700 ± 400 nM | extracellular HMGB1 in supernatant, Western Blot [4]: presence of extracellular HMGB1 | IC50 [5]: 3000 ± 300 nM | IC50 [6]: 2700 ± 300 nM | IC50 [7]: 3100 ± 700 nM | IC50 [8]: 2400 ± 500 nM | IC50 [9]: 1400 nM | HMGB1 expression, confocal microscopy (HMGB1 in AB12 cells): confirmed by confocal microscopy

CCn1cc[n+](CC)[c]1[Au-][C]#CCOC(=O)[C@@]1(C)CC[C@]2(C)CC[C@]3(C)C(=CC(=O)[C@@H]4[C@@]5(C)CC[C@H](OC(=O)CCCCC[P+](c6ccccc6)(c6ccccc6)c6ccccc6)C(C)(C)[C@@H]5CC[C@]43C)[C@@H]2C1.[Br-] [Au4]
tumor-free time of vaccinated mice [10]: more than 30 days

Cc1cc(C)c(-n2cc[n+](CCO)[c]2[Au-][c]2n(-c3c(C(C)C)cccc3C(C)C)c3c([n+]2-c2c(C(C)C)cccc2C(C)C)C(=O)c2ccccc2C3=O)c(C)c1 [Au1]
tumor-free time of vaccinated mice (colon cancer cells): more than 42 days

Reference: paper PMC11887451, “Leveraging Immunogenic Cell Death to Enhance the Immune Response against Malignant Pleural Mesothelioma Tumors” (Journal of the American Chemical Society, 2025)
